These results are taken from BindingDB's records for doi:10.7270/Q2ZC817P (The Scripps Research Institute Molecular Screening Center, 2007).

The structures appear in SMILES notation.

Sequence of Sphingosine 1-phosphate receptor 1 (P21453 whole entry): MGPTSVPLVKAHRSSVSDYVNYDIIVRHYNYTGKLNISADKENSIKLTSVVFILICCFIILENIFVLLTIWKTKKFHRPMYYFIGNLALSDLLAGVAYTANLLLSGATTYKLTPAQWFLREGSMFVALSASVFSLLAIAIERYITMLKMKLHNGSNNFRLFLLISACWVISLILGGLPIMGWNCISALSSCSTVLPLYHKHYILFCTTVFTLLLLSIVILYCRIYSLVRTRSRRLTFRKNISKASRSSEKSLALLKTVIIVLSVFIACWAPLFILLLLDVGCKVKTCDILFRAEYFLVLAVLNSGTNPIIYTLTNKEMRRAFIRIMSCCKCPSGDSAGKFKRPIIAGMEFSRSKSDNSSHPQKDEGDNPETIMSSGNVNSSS

The first assay addresses Sphingosine 1-phosphate receptor 1 (Homo sapiens, UniProt P21453). Nature of the assay: S1P1 agonism potentiation – cell-based, potentiator mode, 60K MLSMR set, dose response (AID 466).
Conditions: not given
Turning to `CCOC(=O)C1C(=O)C=C(c2ccc(OC)cc2)CC1c1ccco1` (stereo not given) [6-(2-furanyl)-4-(4-methoxyphenyl)-2-oxo-1-cyclohex-3-enecarboxylic acid ethyl ester], the EC50 (usually the concentration at which the effect is half-maximal) is 3.37 µM. Same read-out and setting: next, `CC1(C)CC(=O)C(=CNc2ccc3[nH]ncc3c2)C(=O)C1` [SMR000111453]: 6.01 µM. In the case of `Oc1ccc(-c2nnc(-c3ccc(O)cc3)nn2)cc1` [4,4'-(1,2,4,5-tetrazine-3,6-diyl)diphenol], the EC50 was above 10 µM. The same measure, in the same setting: next, `COc1ccc(-c2nc(-c3ccc(NC(=O)c4ccncc4)cc3)no2)cc1OC` [MLS000115086]: 0.685 µM; `c1csc(CCNc2ncnc3sc4c(c23)CCC4)c1` [7,8-dihydro-6H-cyclopenta[4,5]thieno[1,2-c]pyrimidin-1-yl-[2-(2-thienyl)ethyl]amine]: 1.44 µM; `Cc1nnc(SC(=O)N2c3ccccc3Sc3ccccc32)s1` [10-phenothiazinecarbothioic acid S-(5-methyl-1,3,4-thiadiazol-2-yl) ester]: 3.63 µM. On the same count and under the same terms, in the case of `O=S1(=O)Nc2c(ccc3cccnc23)-c2ccccc21` [5H-quinolino[8,7-c][1,2]benzothiazine 6,6-dioxide] it was 3.22 µM. On the same count and under the same terms, in the case of `COC(=O)c1c(C)n(-c2ccc(OC)cc2)c2ccc(O)cc12` [5-hydroxy-1-(4-methoxyphenyl)-2-methyl-3-indolecarboxylic acid methyl ester] it was 6.86 µM; in that of `O=C(CCc1nc(-c2ccccc2F)no1)Nc1ccc(Oc2ccccc2)cc1` [3-[3-(2-fluorophenyl)-1,2,4-oxadiazol-5-yl]-N-(4-phenoxyphenyl)propanamide], 4.77 µM.

As to `COc1ccc(-c2n[nH]cc2-c2ccc3c(c2)OCCO3)c(O)c1` [(6E)-6-[4-(2,3-dihydro-1,4-benzodioxin-6-yl)-1,2-dihydropyrazol-3-ylidene]-3-methoxycyclohexa-2,4-dien-1-one], the EC50 amounted to 1.49 µM.

For the compound `O=C(Nc1nc(-c2ccc(Cl)s2)cs1)c1ccncc1` [MLS000098514], the EC50 was above 10 µM. Still for that read-out and setting: in the case of `O=C(NCc1ccccc1)N1CCN(c2ccc(Cl)c(Cl)c2)CC1` [4-(3,4-dichlorophenyl)-N-(phenylmethyl)-1-piperazinecarboxamide] it was 6.67 µM; in that of `Cc1ccsc1C(=O)OCC(=O)c1cc(C)n(CC2CCCO2)c1C` (stereo not given) [3-methyl-2-thiophenecarboxylic acid [2-[2,5-dimethyl-1-(2-oxolanylmethyl)-3-pyrrolyl]-2-oxoethyl] ester], 8.31 µM.

Still in this assay, the particulars now being: inactive by the depositor's call.
For `COc1cccc(NC(=O)Nc2nnc(N3CCCCC3C)s2)c1` (stereo not given) [1-(3-methoxyphenyl)-3-[5-(2-methyl-1-piperidinyl)-1,3,4-thiadiazol-2-yl]urea], the EC50 amounted to 11.5 µM. Still for that read-out and setting: in the case of `O=C(CSc1ncnc2c1oc1ccccc12)N1CCCc2ccccc21` [2-(4-benzofuro[3,2-d]pyrimidinylthio)-1-(3,4-dihydro-2H-quinolin-1-yl)ethanone] it was 10.8 µM; in that of `CCOc1ccc(Cc2nc(-c3nonc3N)no2)cc1OCC` [4-[5-(3,4-diethoxybenzyl)-1,2,4-oxadiazol-3-yl]-1,2,5-oxadiazol-3-amine], 12.6 µM; in that of `CCSc1nc(N2CCOCC2)c2c(c1C#N)CCCC2` [3-(ethylthio)-1-(4-morpholinyl)-5,6,7,8-tetrahydroisoquinoline-4-carbonitrile], 30.9 µM. The same measure, in the same setting: in the case of `CC1CCN(S(=O)(=O)c2ccc3c(c2)oc(=O)n3CC(=O)NCc2ccc3c(c2)OCO3)CC1` [2-[2-keto-6-(4-methylpiperidino)sulfonyl-1,3-benzoxazol-3-yl]-N-piperonyl-acetamide] it was 14.6 µM; in that of `O=C(CSc1nnc(-c2ccc(Cl)cc2)n1Cc1ccco1)c1cccs1` [2-[[5-(4-chlorophenyl)-4-(2-furanylmethyl)-1,2,4-triazol-3-yl]thio]-1-thiophen-2-ylethanone], 13.8 µM; in that of `Brc1ccc2ncnc(Nc3ccc(N4CCOCC4)cc3)c2c1` [(6-bromoquinazolin-4-yl)-(4-morpholinophenyl)amine], 15.1 µM.
